Where a SMILES comes first, the peptide text is derived from it. [ ]: non-standard residue; d: D form. Aib = CC(C)(N)C(=O)O
test system: Mouse monocyte/macrophage cell line, RAW 264.7; assay: Cholesterol efflux assay (3H-cholesterol, macrophage cell line); type: cell-based; conditions: RAW 264.7, 4 hrs incubation, 0.1% human serum albumin, ABCA1-mediated efflux

Compound | 4 h Cholesterol Efflux Emax
CC[C@H](C)[C@H](NC(=O)[C@H](Cc1ccccc1)NC(=O)[C@H](CCC(=O)O)NC(=O)[C@H](CCCNC(=N)N)NC(=O)[C@@H](NC(=O)[C@H](C)NC(=O)[C@H](CCC(=O)O)NC(=O)[C@H](CCC(=O)O)NC(=O)[C@H](CCC(=O)O)NC(=O)[C@H](CCSC)NC(=O)[C@H](CCC(N)=O)NC(=O)[C@H](CCCCN)NC(=O)[C@H](CO)NC(=O)[C@H](CC(C)C)NC(=O)[C@H](CC(=O)O)NC(=O)[C@H](CO)NC(=O)[C@@H](NC(=O)[C@H](Cc1ccccc1)NC(=O)[C@@H](NC(=O)CNC(=O)[C@H](CCC(=O)O)NC(=O)C(C)(C)NC(=O)[C@@H](N)Cc1c[nH]cn1)[C@@H](C)O)[C@@H](C)O)C(C)C)C(=O)N[C@@H](CCC(=O)O)C(=O)N[C@@H](Cc1c[nH]c2ccccc12)C(=O)N[C@@H](CC(C)C)C(=O)N[C@@H](CCCCN)C(=O)N[C@@H](CC(N)=O)C(=O)N[C@@H](CCCCN)C(=O)NC(C)(C)C(=O)N[C@@H](CC(C)C)C(=O)N[C@@H](CCC(=O)O)C(=O)N[C@@H](Cc1ccccc1)C(=O)N[C@@H](CC(C)C)C(=O)N[C@@H](CCC(=O)O)C(=O)N[C@@H](CC(C)C)C(=O)N[C@@H](CC(C)C)C(N)=O [Compound 29, [Aib2,Glu21,Lys29,Aib30,Leu31,Glu32,Phe33,Leu34,Glu35,Leu36,Leu371-Exendin-4-(1-37)-peptide amide] | 81%
CC[C@H](C)[C@H](NC(=O)[C@H](Cc1ccccc1)NC(=O)[C@H](CCC(=O)O)NC(=O)[C@H](CCCNC(=N)N)NC(=O)[C@@H](NC(=O)[C@H](C)NC(=O)[C@H](CCC(=O)O)NC(=O)[C@H](CCC(=O)O)NC(=O)[C@H](CCC(=O)O)NC(=O)[C@H](CCSC)NC(=O)[C@H](CCC(N)=O)NC(=O)[C@H](CCCCN)NC(=O)[C@H](CO)NC(=O)[C@H](CC(C)C)NC(=O)[C@H](CC(=O)O)NC(=O)[C@H](CO)NC(=O)[C@@H](NC(=O)[C@H](Cc1ccccc1)NC(=O)[C@@H](NC(=O)CNC(=O)[C@H](CCC(=O)O)NC(=O)C(C)(C)NC(=O)[C@@H](N)Cc1c[nH]cn1)[C@@H](C)O)[C@@H](C)O)C(C)C)C(=O)N[C@@H](CCC(=O)O)C(=O)N[C@@H](Cc1c[nH]c2ccccc12)C(=O)N[C@@H](CC(C)C)C(=O)N[C@@H](CCCCN)C(=O)N[C@@H](CC(N)=O)C(=O)N[C@@H](CCCCN)C(=O)NCC(=O)N[C@@H](CC(C)C)C(=O)N[C@@H](CCC(=O)O)C(=O)N[C@@H](Cc1ccccc1)C(=O)N[C@@H](CC(C)C)C(=O)N[C@@H](CCC(=O)O)C(=O)N[C@@H](CC(C)C)C(=O)N[C@@H](CC(C)C)C(N)=O [Compound 33, [Aib2,Glu21,Lys29,Leu31,Glu32,Phe33,Leu34,Glu35,Leu36,Leu371-Exendin-4-(1-37)-peptide amide] (H-H[Aib]EGTFTSDLSKQMEEEAVREFIEWLKNKGLEFLELL-NH2; N-terminus assumed) | 87%
CC[C@H](C)[C@H](NC(=O)[C@H](Cc1ccccc1)NC(=O)[C@H](CCC(=O)O)NC(=O)[C@H](CCCNC(=N)N)NC(=O)[C@@H](NC(=O)[C@H](C)NC(=O)[C@H](CCC(=O)O)NC(=O)[C@H](CCC(=O)O)NC(=O)[C@H](CCC(=O)O)NC(=O)[C@H](CCSC)NC(=O)[C@H](CCC(N)=O)NC(=O)[C@H](CCCCN)NC(=O)[C@H](CO)NC(=O)[C@H](CC(C)C)NC(=O)[C@H](CC(=O)O)NC(=O)[C@H](CO)NC(=O)[C@@H](NC(=O)[C@H](Cc1ccccc1)NC(=O)[C@@H](NC(=O)CNC(=O)[C@H](CCC(=O)O)NC(=O)C(C)(C)NC(=O)[C@@H](N)Cc1c[nH]cn1)[C@@H](C)O)[C@@H](C)O)C(C)C)C(=O)N[C@@H](CCC(=O)O)C(=O)N[C@@H](Cc1c[nH]c2ccccc12)C(=O)N[C@@H](CC(C)C)C(=O)N[C@@H](CCCCN)C(=O)N[C@@H](CC(N)=O)C(=O)N[C@@H](CCCCN)C(=O)NC(C)(C)C(=O)N[C@@H](CC(C)C)C(=O)N[C@@H](CO)C(=O)N[C@@H](Cc1ccccc1)C(=O)N[C@@H](CC(C)C)C(=O)N[C@@H](CCC(=O)O)C(=O)N[C@@H](CC(C)C)C(=O)N[C@@H](CC(C)C)C(N)=O [Compound 36, [Aib2,Glu21,Lys29,Aib30,Leu31,Phe33,Leu34,Glu35,Leu36,Leu371-Exendin-4-(1-37)-peptide amide] (H-H[Aib]EGTFTSDLSKQMEEEAVREFIEWLKNK[Aib]LSFLELL-NH2; N-terminus assumed) | 95%
CC[C@H](C)[C@H](NC(=O)[C@H](Cc1ccccc1)NC(=O)[C@H](CCC(=O)O)NC(=O)[C@H](CCCNC(=N)N)NC(=O)[C@@H](NC(=O)[C@H](C)NC(=O)[C@H](CCC(=O)O)NC(=O)[C@H](CCC(=O)O)NC(=O)[C@H](CCC(=O)O)NC(=O)[C@H](CCSC)NC(=O)[C@H](CCC(N)=O)NC(=O)[C@H](CCCCN)NC(=O)[C@H](CO)NC(=O)[C@H](CC(C)C)NC(=O)[C@H](CC(=O)O)NC(=O)[C@H](CO)NC(=O)[C@@H](NC(=O)[C@H](Cc1ccccc1)NC(=O)[C@@H](NC(=O)CNC(=O)[C@H](CCC(=O)O)NC(=O)C(C)(C)NC(=O)[C@@H](N)Cc1c[nH]cn1)[C@@H](C)O)[C@@H](C)O)C(C)C)C(=O)N[C@@H](CCC(=O)O)C(=O)N[C@@H](Cc1c[nH]c2ccccc12)C(=O)N[C@@H](CC(C)C)C(=O)N[C@@H](CCCCN)C(=O)N[C@@H](CC(N)=O)C(=O)N[C@@H](CCCCN)C(=O)NC(C)(C)C(=O)N[C@@H](CC(C)C)C(=O)N[C@@H](CCC(=O)O)C(=O)N[C@@H](Cc1ccccc1)C(=O)N[C@@H](CC(C)C)C(=O)N[C@@H](C)C(=O)N[C@@H](CC(C)C)C(=O)N[C@@H](CC(C)C)C(N)=O [Compound 41, [Aib2,Glu21,Lys29,Aib30,Leu31,Glu32,Phe33,Leu34,Leu36,Leu371-Exendin-4-(1-37)-peptide amide] (H-H[Aib]EGTFTSDLSKQMEEEAVREFIEWLKNK[Aib]LEFLALL-NH2; N-terminus assumed) | 98%
CC[C@H](C)[C@H](NC(=O)[C@H](Cc1ccccc1)NC(=O)[C@H](CCC(=O)O)NC(=O)[C@H](CCCNC(=N)N)NC(=O)[C@@H](NC(=O)[C@H](C)NC(=O)[C@H](CCC(=O)O)NC(=O)[C@H](CCC(=O)O)NC(=O)[C@H](CCC(=O)O)NC(=O)[C@H](CCSC)NC(=O)[C@H](CCC(N)=O)NC(=O)[C@H](CCCCN)NC(=O)[C@H](CO)NC(=O)[C@H](CC(C)C)NC(=O)[C@H](CC(=O)O)NC(=O)[C@H](CO)NC(=O)[C@@H](NC(=O)[C@H](Cc1ccccc1)NC(=O)[C@@H](NC(=O)CNC(=O)[C@H](CCC(=O)O)NC(=O)C(C)(C)NC(=O)[C@@H](N)Cc1c[nH]cn1)[C@@H](C)O)[C@@H](C)O)C(C)C)C(=O)N[C@@H](CCC(=O)O)C(=O)N[C@@H](Cc1c[nH]c2ccccc12)C(=O)N[C@@H](CC(C)C)C(=O)N[C@@H](CCCCN)C(=O)N[C@@H](CC(N)=O)C(=O)N[C@@H](CCCCN)C(=O)NC(C)(C)C(=O)N[C@@H](CC(C)C)C(=O)N[C@@H](CCC(=O)O)C(=O)N[C@@H](Cc1ccccc1)C(=O)N[C@@H](CC(C)C)C(N)=O [Compound 42, [Aib2,Glu21, Lvs29,Aib30,Leu31,Glu32,Phe33,Leu34]-Exendin-4-(1-34)-peptide amide] (H-H[Aib]EGTFTSDLSKQMEEEAVREFIEWLKNK[Aib]LEFL-NH2; N-terminus assumed) | 105%
CC[C@H](C)[C@H](NC(=O)[C@H](Cc1ccccc1)NC(=O)[C@H](CCC(=O)O)NC(=O)[C@H](CCCCN)NC(=O)[C@H](C)NC(=O)[C@H](C)NC(=O)[C@H](CCC(N)=O)NC(=O)CNC(=O)[C@H](CCC(=O)O)NC(=O)[C@H](CC(C)C)NC(=O)[C@H](Cc1ccc(O)cc1)NC(=O)[C@H](CO)NC(=O)[C@H](CO)NC(=O)[C@@H](NC(=O)[C@H](CC(=O)O)NC(=O)[C@H](CO)NC(=O)[C@@H](NC(=O)[C@H](Cc1ccccc1)NC(=O)[C@@H](NC(=O)CNC(=O)[C@H](CCC(=O)O)NC(=O)C(C)(C)NC(=O)[C@@H](N)Cc1c[nH]cn1)[C@@H](C)O)[C@@H](C)O)C(C)C)C(=O)N[C@@H](C)C(=O)N[C@@H](Cc1c[nH]c2ccccc12)C(=O)N[C@@H](CC(C)C)C(=O)N[C@H](C(=O)N[C@@H](CCCCN)C(=O)N[C@@H](CCCCN)C(=O)NC(C)(C)C(=O)N[C@@H](CCCCN)C(=O)N[C@@H](CCC(=O)O)C(=O)N[C@@H](Cc1ccccc1)C(=O)N[C@@H](CC(C)C)C(N)=O)C(C)C [Compound 47, [Aib8,Lys35,Aib36,Lys37]-GLP-1-(7-37)-peptidyl-Glu-Phe-Leu amide] | 55%
CC[C@H](C)[C@H](NC(=O)[C@H](Cc1ccccc1)NC(=O)[C@H](CCCCN)NC(=O)[C@H](CCCCN)NC(=O)[C@@H](NC(=O)[C@H](C)NC(=O)[C@H](CCC(=O)O)NC(=O)CNC(=O)[C@H](CCC(=O)O)NC(=O)[C@H](CC(C)C)NC(=O)[C@H](Cc1ccc(O)cc1)NC(=O)[C@H](CO)NC(=O)[C@H](CO)NC(=O)[C@@H](NC(=O)[C@H](CC(=O)O)NC(=O)[C@H](CO)NC(=O)[C@@H](NC(=O)[C@H](Cc1ccccc1)NC(=O)[C@@H](NC(=O)CNC(=O)[C@H](CCC(=O)O)NC(=O)C(C)(C)NC(=O)[C@@H](N)Cc1c[nH]cn1)[C@@H](C)O)[C@@H](C)O)C(C)C)C(C)C)C(=O)N[C@@H](C)C(=O)N[C@@H](Cc1c[nH]c2ccccc12)C(=O)N[C@@H](CC(C)C)C(=O)N[C@H](C(=O)N[C@@H](CCC(=O)O)C(=O)N[C@@H](CCCCN)C(=O)NC(C)(C)C(=O)N[C@@H](CCCCN)C(=O)N[C@@H](CCC(=O)O)C(=O)N[C@@H](Cc1ccccc1)C(=O)N[C@@H](CC(C)C)C(N)=O)C(C)C [Compound 51, [Aib8,Glu23,Val25,Lys27,Glu34,Lys35,Aib36,Lys37]-GLP-1-(7-37)-peptidyl-Glu-Phe-Leu amide] (H-H[Aib]EGTFTSDVSSYLEGEAVKKFIAWLVEK[Aib]KEFL-NH2; N-terminus assumed) | 117%

same assay, conditions: read-out: 4 h Cholesterol Efflux EC50; RAW 264.7, 4 hrs incubation, 0.1% human serum albumin, ABCA1-mediated efflux (CPT-cAMP induced minus non-induced)

Compound | EC50
CC[C@H](C)[C@H](NC(=O)[C@H](Cc1ccccc1)NC(=O)[C@H](CCCCN)NC(=O)[C@H](CCCCN)NC(=O)[C@@H](NC(=O)[C@H](C)NC(=O)[C@H](CCC(=O)O)NC(=O)CNC(=O)[C@H](CCC(=O)O)NC(=O)[C@H](CC(C)C)NC(=O)[C@H](Cc1ccc(O)cc1)NC(=O)[C@H](CO)NC(=O)[C@H](CO)NC(=O)[C@@H](NC(=O)[C@H](CC(=O)O)NC(=O)[C@H](CO)NC(=O)[C@@H](NC(=O)[C@H](Cc1ccccc1)NC(=O)[C@@H](NC(=O)CNC(=O)[C@H](CCC(=O)O)NC(=O)C(C)(C)NC(=O)[C@@H](N)Cc1c[nH]cn1)[C@@H](C)O)[C@@H](C)O)C(C)C)C(C)C)C(=O)N[C@@H](C)C(=O)N[C@@H](Cc1c[nH]c2ccccc12)C(=O)N[C@@H](CC(C)C)C(=O)N[C@H](C(=O)N[C@@H](CCC(=O)O)C(=O)N[C@@H](CCCCN)C(=O)NC(C)(C)C(=O)N[C@@H](CCCCN)C(=O)N[C@@H](CCC(=O)O)C(=O)N[C@@H](Cc1ccccc1)C(=O)N[C@@H](CC(C)C)C(N)=O)C(C)C [Compound 51, [Aib8,Glu23,Val25,Lys27,Glu34,Lys35,Aib36,Lys37]-GLP-1-(7-37)-peptidyl-Glu-Phe-Leu amide] (H-H[Aib]EGTFTSDVSSYLEGEAVKKFIAWLVEK[Aib]KEFL-NH2; N-terminus assumed) | 440 nM

Source: patent US20150344540A1, “NOVEL GLP-1 RECEPTOR AGONISTS WITH CHOLESTEROL EFFLUX ACTIVITY” (NOVO NORDISK A/S, priority 2012, published 2015)
